# Earlier results in US20200330378A1, “TASTE-ENHANCED C[…] EMULSION SYRUP COMPOSITIONS” (ICDPHARMA LTD., priority 2018, published 2020).
# Key:
# [1] = test system: human lung tumors implanted into rats and mice
# [2] = subjects given THC
# [3] = patients with insomnia; 160 mg dose of CBD compared to placebo
# [4] = 75-300 mg of CBD taken daily
SMILES,reduction in tumor mass and volume ([1]; human lung tumors implanted into rats and mice),reduction of cancerous lesions in the lungs ([1]; rats and mice),amount of time to fall asleep [2],length of sleep [3],symptoms of REM sleep behavior disorder [4]
"CCCCCc1cc(O)c2c(c1)OC(C)(C)[C@@H]1CCC(C)=C[C@@H]21 [THC, tetrahydrocannabinol]",≤ 50%,around 60%,significant decrease,,
"C=C(C)[C@@H]1CCC(C)=C[C@H]1c1c(O)cc(CCCCC)cc1O [CBD, cannabidiol]",,,,increased,reduce or eliminate entirely
